Reference: patent US8420309B2, “Method of screening compounds using CALHM (FAM26C)” (The Feinstein for Medical Research, priority 2007, dated 2013)

Test system: CALHM1
Experiment: CALHM1 N-glycosylation, western blot of transfected HEK293 cells
Type: cell-based, human
Conditions: HEK293 cells transfected with Myc-CALHM1 for six hours, 10 μg/ml tunicamycin, anti-Myc WB
Description: Western blotting (WB) and immunoprecipitation (IP) assays. For WB, cells were washed with PBS and solubilized in ice-cold HEPES buffer (25 mM HEPES, pH 7.4, 150 mM NaCl, 1X Complete protease inhibitor cocktail, Roche) containing 1% SDS. Ten micrograms of extracts was analyzed by SDS-PAGE. A standard ECL detection procedure was then used. For multimerization analyses and IP, cells were harvested six hours after transfection with the indicated CALHM1 cDNAs. Cells were then solubilized for 2 h at 4° C. in HEPES buffer containing 1% Nonidet P-40. Cell extracts were pre-cleared by centrifugation at 10,000 rpm for 5 min. For multimerization analyses, cell extracts were analyzed by WB in the absence (non-reducing conditions) or presence of 5% β-mercaptoethanol (reducing conditions). For IP, supernatants were immunoprecipitated with immobilized anti-Myc antibody, as per supplier's instructions (ProFound Mammalian c-Myc Tag IP Kit, Pierce). Total extracts and immunoprecipitated proteins were then analyzed by WB.
CALHM1 deglycosylation. […] CALHM1-transfected HT-22 cells were solubilized and incubated for 16 h at 37° C. in digestion buffer (50 mM NaH2PO4, pH 7.4, 20 mM EDTA, 0.2% SDS, and 1% β-mercaptoethanol) in the absence or presence of PNGase F. Cell lysates were then analyzed by WB using anti-Myc antibody, as described above.

## tunicamycin
  appearance of the CALHM1 band of higher molecular weight (N-glycosylated form): completely inhibited
